Several values for one entry are separate records, joined by “and”; a condition that tells them apart may be missing. Equal values may be shown once. Read-outs that look alike come from different tables or passages of the source. Peptide text beside a SMILES is read from it.
Assays:
Type in all cases: biochemical
[1] = test system: B. levii
Method: (§1) The enzyme activity was measured by the chromogenic properties of N-CBz-glycyl-glycyl-L-arginine-β-naphthylamide which upon hydrolysis gives a visible color. The aminopeptidase activities listed in the table reflect the nanomoles of β-naphthylamine liberated after 60 minutes under the conditions described below.
(§2) After mixing, the solution is incubated for 1 hour at 37° C. and then 0.4 ml of a solution of stabilized diazonium salt, Fast Garnet GBC (0.5 mg/ml) in a 1M acetic acid buffer (pH 4.2), containing 10% Tween 20 was added to the mixture. After standing for 15 minutes at room temperature, the color reaction can be read manually by comparison with standard solutions or the absorbancy can be determined using a spectrophotometer at 525 nm. The reaction mixture without enzyme solution is used as a control.

[2] = test system: B. loescheii
Method: as §1, §2

[3] = test system: B. mel. ss. intermedius
Method: as §1, §2

[4] = test system: C. ochracea
Method: as §1, §2

[5] = test system: Capnocytophaga gingivalis
Method: as §1, §2

[6] = test system: Capnocytophaga sp.
Method: as §1, §2

[7] = test system: B. corporis; assay: Aminopeptidase activity on β-naphthylamide substrates
Method: as §1, §2

[8] = test system: B. denticola; assay: as above
Method: as §1, §2

[9] = test system: B. intermedius; assay: as above
Method: as §1, §2

[10] = test system: B. melaninogenicus; assay: as above
Method: as §1, §2

[11] = test system: C. sputigena; assay: as above
Method: as §1, §2

[12] = test system: "Anaerobic vibrio"
Method: as §1, §2
(§3) The enzyme activity and the aminopeptidase activities were determined in the manner described above in regard to Table I.

[13] = test system: A. seminis
Method: as §1, §2, §3

[14] = test system: A. viscosus
Method: as §1, §2, §3

[15] = test system: Campylobacter sputorum
Method: as §1, §2, §3

[16] = test system: Eikenella corrodens
Method: as §1, §2, §3

[17] = test system: Fusobacterium nucleatum
Method: as §1, §2, §3

[18] = test system: S. mutans
Method: as §1, §2, §3

[19] = test system: S. sanguis
Method: as §1, §2, §3

[20] = test system: V. parvula
Method: as §1, §2, §3

[21] = test system: Veillonella sp.
Method: as §1, §2, §3

[22] = test system: A. equuli; assay: Aminopeptidase activity on β-naphthylamide substrates
Method: as §1, §2, §3

[23] = test system: A. suis; assay: as above
Method: as §1, §2, §3

[24] = test system: F. periodonticum; assay: as above
Method: as §1, §2, §3

[25] = test system: Haemophilus aphrophilus; assay: as above
Method: as §1, §2, §3

[26] = test system: L. fermentum; assay: as above
Method: as §1, §2, §3

[27] = test system: Lactobacillus casei; assay: as above
Method: as §1, §2, §3

[28] = test system: Veillonella alcalesens; assay: as above
Method: as §1, §2, §3

## NCCCC[C@H](N)C(=O)N1CCC[C@H]1C(=O)O [Lys-Pro, Lysyl-proline] (H-Lys-Pro-OH)
[1]
  Aminopeptidase activity: 51 and 54
[2]
  Aminopeptidase activity: 81 and 89
[3]
  Aminopeptidase activity: 54 and 75 and 69
[4]
  Aminopeptidase activity: 108
[5]
  Aminopeptidase activity: 176
[6]
  Aminopeptidase activity: 35
[7]
  Aminopeptidase activity: 75
[8]
  Aminopeptidase activity: 86
[9]
  Aminopeptidase activity: 63
[10]
  Aminopeptidase activity: 70
[11]
  Aminopeptidase activity: 86
[12]
  Aminopeptidase activity: 3
[13]
  Aminopeptidase activity: 0
[14]
  Aminopeptidase activity: 5 and 7
[15]
  Aminopeptidase activity: 3
[16]
  Aminopeptidase activity: 0
[17]
  Aminopeptidase activity: 2 and 1
[17]; strain D31A-24, β-naphthylamine liberated after 60 minutes, 37° C.
  Aminopeptidase activity: 2 nmol
[18]
  Aminopeptidase activity: 14
[19]
  Aminopeptidase activity: 5 and 4
[20]
  Aminopeptidase activity: 0
[21]
  Aminopeptidase activity: 1
[22]
  Aminopeptidase activity: 0
[23]
  Aminopeptidase activity: 0
[24]
  Aminopeptidase activity: 1
[25]
  Aminopeptidase activity: 0
[26]
  Aminopeptidase activity: 0
[27]
  Aminopeptidase activity: 0
[28]
  Aminopeptidase activity: 1
